In patent publication US20240189315A1, “Cyclic Pyridine Derivatives as cGAS Inhibitors” (Boehringer Ingelheim International GmbH, priority 2022, published 2024):
Read-outs that look alike come from different tables or passages of the source.

Tests used:
[1] = target: cellular cGAS activity in dsDNA-stimulated human whole blood (Homo sapiens (Human), UniProt Q8N884); assay: Human whole blood assay (hWB IC50): IFNα2a production after dsDNA transfection; assay type: cell-based;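 also: IFNα-2a in plasma measured by MSD electrochemiluminescence immunoassay after 22 h at 37 °C, 8-point dilution series from 10 µM top concentration, DMSO wells as controls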
[2] = tested on: pathway directly downstream of cGAS in cGAMP-stimulated THP1-Dual cells; assay: cGAMP stimulated counter cell assay (THP1(cGAMP) IC50): IFN induction in cGAMP-stimulated THP1-Dual cells; assay type: cell-based, human; settings: for IC50: Homo sapiens, THP1-Dual; for Ratio THP(cGAMP) IC50/ THP(vir) IC50: selectivity for cGAS inhibition
From the text: 6.2 Method: Human cGAS Cell Assay and cGAMP Stimulated Counter Cell Assay (THP1(vir) IC50 and THP1(cGAMP) IC50)
THP1-Dual™ cells (InvivoGen #thpd-nfis) expressing IRF dependent Lucia luciferase reporter were used as basis for both assays. For the detection of cellular cGAS activity cells were stimulated by a baculovirus (pFastbac-1, Invitrogen, no coding insert) infection that delivers the cGAS enzyme stimulating double-stranded DNA (measurement of THP1(vir) IC50).
For the counter assay, cells were stimulated by cGAMP (SigmaAldrich #SML1232) to activate the identical pathway independent and directly downstream of cGAS (measurement of THP1(cGAMP) IC50). Pathway activity was monitored by measuring the Lucia luciferase activity induced by either DNA stimulated cGAS enzyme activity (measurement of THP1(vir) IC50) or by cGAMP directly (measurement of THP1(cGAMP) IC50, counter assay).
Compounds were delivered in 10 mM DMSO solution, serially diluted and transferred to the 384 well assay plate (Greiner #781201) using an Echo acoustic dispenser. Typically, 8 concentrations were used with the highest concentration at 10 μM in the final assay volume followed by ˜1:5 dilution steps. DMSO concentration was set to 1% in the final assay volume. The 384 well assay plate contained 21 test compounds (column 1-22), and DMSO in column 23 and 24.
Cells, cultivated according to manufacturer conditions, were harvested by centrifugation at 300 g/10 min and were then resuspended and diluted to 1.66E5 cells/ml in fresh cell culture medium (RPMI 1640 (Gibco #A10491-01), 10% FCS (Gibco #10500), 1× GlutaMax (Gibco #35050-061), 1× Pen/Strep solution (Gibco #15140-122), 100 μg/ml Normocin (InvivoGen #ant-nr), 100 μg/ml Zeocin (InvivoGen #ant-zn), 10 μg/ml Blasticidin S (Life Technologies #A11139-03)). The baculovirus solution was then added 1:200 (have varied according to virus batch) to the cells (measurement of THP1(vir) IC50). […] 30 μL of the cell/virus-mix were added to each well of the compound plate from column 1-23 via MultiDrop Combi dispenser (5000 cells/well). In column 24, 30 μl/5000 cells/well without virus were added as a low control.
The plates were then incubated for 18 h at 37° C. in a humidified incubator.
Following that, 15 μL of QuantiLuc detection reagent (InvivoGen #rep-qlcg5) were added to each well using a MultiDrop Combi. Measurement was done immediately after the addition using an EnVision reader (US-luminescence read-mode).
Data Evaluation and Calculation:
For data evaluation and calculation, the measurement of the low control was set as 0% control and the measurement of the high control was set as 100% control. The IC50 values were calculated using the standard 4 parameter logistic regression formula. Calculation: [y=(a−d)/(1+(x/c)^b)+d], a=low value, d=high value; x=conc M; c=IC50 M; b=slope

[3] = target: cellular cGAS activity in baculovirus-stimulated THP1-Dual cells (Homo sapiens (Human), UniProt Q8N884); assay: Human cGAS cell assay (THP1(vir) IC50): IFN induction in virus-stimulated THP1-Dual cells, IRF Lucia luciferase reporter; assay type: cell-based;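 also: Eight-point dilution series starting at 10 µM, 1% DMSO, 18 h at 37 °C, luminescence read-out, virus-free wells as 0% and DMSO-treated virus-stimulated wells as 100%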
Human cGAS enzyme = Human cGAS enzyme (Homo sapiens (Human), UniProt Q8N884); assay: Human cGAS enzyme assay (hcGAS IC50, in vitro), cGAMP formation by RapidFire MS; assay type: biochemical;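 also: recombinant human cGAS activated by 45 bp dsDNA with 30 µM each ATP and GTP, 90 min, cGAMP vs cyclic-di-GMP standard by MS, 8-point titration from 10 µM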
[4] = Table 1, dsDNA-stimulated human whole blood
[5] = Table 1, cGAMP-stimulated THP1 cells, read-out: THP(cGAMP) IC50
[6] = Table 1, virus-stimulated THP1 cells, read-out: THP(vir) IC50
[7] = Table 2, compounds from WO 2020/142729
[8] = Table 2, compounds from WO 2020/142729, read-out: THP1(cGAMP) IC50
[9] = Table 2, compounds from WO 2020/142729, read-out: THP1(vir) IC50
[10] = Table 2, compounds from WO 2020/142729 re-tested in the applicant's assay

cellular cGAS activity in baculovirus-stimulated THP1-Dual cells, sequence (Q8N884 whole entry): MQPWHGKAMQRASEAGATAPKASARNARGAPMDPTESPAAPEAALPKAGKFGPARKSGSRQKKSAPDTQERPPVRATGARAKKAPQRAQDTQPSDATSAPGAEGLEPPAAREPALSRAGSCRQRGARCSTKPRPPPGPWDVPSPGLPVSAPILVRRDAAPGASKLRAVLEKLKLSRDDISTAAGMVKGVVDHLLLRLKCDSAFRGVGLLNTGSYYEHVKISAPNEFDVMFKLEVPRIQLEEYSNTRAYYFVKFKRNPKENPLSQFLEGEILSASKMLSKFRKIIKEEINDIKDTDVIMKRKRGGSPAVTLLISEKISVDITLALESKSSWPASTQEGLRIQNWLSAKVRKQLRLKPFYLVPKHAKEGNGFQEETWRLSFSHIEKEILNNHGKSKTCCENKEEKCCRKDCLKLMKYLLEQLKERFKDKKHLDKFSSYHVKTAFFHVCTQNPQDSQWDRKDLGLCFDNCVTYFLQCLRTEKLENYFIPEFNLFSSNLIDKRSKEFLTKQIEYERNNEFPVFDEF
cellular cGAS activity in dsDNA-stimulated human whole blood, sequence (Q8N884 whole entry): as above
Human cGAS enzyme, sequence (Q8N884 whole entry): as above

Row | Structure (SMILES) | IC50 [1, 4] [nM] | IC50 [3, 6] [nM] | IC50 (Human cGAS enzyme; Table 1) [nM] | IC50 [1, 7] [nM] | IC50 [3, 9] [nM] | IC50 (Human cGAS enzyme; [10]) [nM] | IC50 [2, 5] [nM] | Ratio THP(cGAMP) IC50/ THP(vir) IC50 ([2]; Table 1) | IC50 [2, 8] [nM]
1 | C[C@H]1CN2CC[C@]1(F)c1cc(Cl)cnc1O[C@H]1C[C@@H](C(=O)O)N(C1)c1nc(nc3c1oc1ccccc13)COCCCOC2=O [Example 13, (1R,9S,11S,34S)-4-chloro-1-fluoro-34-methyl-31-oxo-8,15,26,30-tetraoxa-6,12,23,32,37-pentaaabestacyclo[30.2.2.1^9,12.1^13,24.0^14,22.0^16,21]octatriaconta-2(7),3,5,13(37),14(22),16(21),17,19,23-nonaene-11-carboxylic acid] | 149 | 42 | 22 | – | – | – | 16000 | 256 | –
2 | C#Cc1cnc2c(c1)[C@@]1(F)CCN(C[C@@H]1C)C(=O)CCCOCCc1nc(c3oc4ccccc4c3n1)N1C[C@H](C[C@H]1C(=O)O)O2 [Example 18, (1R,9S,11S,34S)-4-ethynyl-1-fluoro-34-methyl-31-oxo-8,15,27-trioxa-6,12,23,32,37-pentaazaheptacyclo[30.2.2.1^9,12.1^13,24.0^2,7.0^14,22.0^16,21]octatriaconta-2,4,6,13,16,18,20,22,24(37)-nonaene-11-carboxylic acid] | 18 | 35 | 6 | – | – | – | 4300 | 122 | –
3 | C[C@H]1CN2CC[C@]1(F)c1cc(Cl)cnc1O[C@H]1C[C@@H](C(=O)O)N(C1)c1nc(nc3c1oc1ccccc13)C(F)(F)CCCCC(F)(F)C2=O [Example 06, (1R,9S,11S,34S)-4-chloro-1,25,25,30,30-pentafluoro-34-methyl-31-oxo-8,15-dioxa-6,12,23,32,37-pentaazaheptacyclo[30.2.2.1^9,12.1^13,24.0^2,7.0^14,22.0^16,21]-octatriaconta-2,4,6,13(37),14(22),16(21),17,19,23-nonaene-11-carboxylic acid] | 222 | 150 | 18 | – | – | – | > 10000 | 65 | –
4 | C[C@H]1CN2CC[C@]1(F)c1cc(Cl)cnc1O[C@H]1C[C@@H](C(=O)O)N(C1)c1nc(nc3c1oc1ccccc13)CCCOCCC2=O [Example 23, (1R,9S,11S,34S)-4-Chloro-1-fluoro-34-methyl-31-oxo-8,15,28-trioxa-6,12,23,32,37-pentaazabestacyclo[30.2.2.1^9,12.1^13,24.0^2,7.0^14,22.0^16,21]octatriaconta-2,4,6,13(37),14(22),16(21),17,19,23-nonaene-11-carboxylic acid] | 114 | 69 | 12 | – | – | – | 10000 | 148 | –
5 | C[C@H]1CN2CC[C@]1(F)c1cccnc1O[C@H]1C[C@@H](C(=O)O)N(C1)c1nc(nc3c1oc1ccccc13)CCCOCCC2=O [Example 24, (1R,9S,11S,34S)-1-fluoro-34-methyl-31-oxo-8,15,28-trioxa-6,12,23,32,37-pentaazaheptacyclo-[30.2.2.1^9,12.1^13,24.0^2,7.0^14,22.0^16,21]octatriaconta-2,4,6,13(37),14(22),16(21),17,19,23-nonaene-11-carboxylic acid] | 801 | 640 | 28 | – | – | – | > 10000 | 16 | –

Now from value to compound, other results behind:

Row | IC50 [1, 4] [nM] | IC50 [3, 6] [nM] | IC50 (Human cGAS enzyme; Table 1) [nM] | IC50 [1, 7] [nM] | IC50 [3, 9] [nM] | IC50 (Human cGAS enzyme; [10]) [nM] | Structure (SMILES) | IC50 [2, 5] [nM] | Ratio THP(cGAMP) IC50/ THP(vir) IC50 ([2]; Table 1) | IC50 [2, 8] [nM]
6 | 276 | 46 | 18 | – | – | – | C[C@@H]1COCCCc2nc(c3oc4ccccc4c3n2)N2C[C@H](C[C@H]2C(=O)O)Oc2ncc(Br)cc2[C@@]2(F)CCN(C[C@@H]2C)C1=O [Example 26] | 3200 | 70 | –
7 | – | – | – | > 9990 | > 32000 | 630 | Cc1nc(N2C[C@@H](CC(=O)Nc3ccncc3)C[C@H]2C(=O)O)c2oc3ccccc3c2n1 [Example 28] | – | – | > 17000
8 | – | – | – | > 9980 | 21000 | 320 | CC(C)(C(=O)N[C@H]1C[C@@H](C(=O)O)N(c2nc(C(F)(F)F)nc3c2oc2ccccc23)C1)c1cn[nH]c1 [compound 58] | – | – | 23000
